Consider 9 molecules from publication PMC9022229, “Induction of Paraptosis by Cyclometalated Iridium Complex-Peptide Hybrids and CGP37157 via a Mitochondrial Ca^2+ Overload Triggered by Membrane Fusion between Mitochondria and the Endoplasmic Reticulum” (Biochemistry, 2022).

For data set [1], the system named is Jurkat cells. The conditions noted are these: for Effect of GTPase inhibitor on cytotoxicity by 4 / Effect of GTPase inhibitor on cytotoxicity by CGP37157: inhibitor 1 h (dynasore, Mdivi-1 10–30 μM, CID1067700 1–10 μM); for Effect of GTPase inhibitor on cytotoxicity by 4: then 4 5 μM 1 or 3 h; for Effect of GTPase inhibitor on cytotoxicity by 4 / Effect of GTPase inhibitor on cytotoxicity by CGP37157 / Effect of Ca2+ channel inhibitor on cell death induced by celastrol / Effect of PCD inhibitor on cell death induced by CGP37157: MTT; for Effect of GTPase inhibitor on cytotoxicity by CGP37157: then CGP37157 100 μM 12 h; for Effect of Ca2+ channel inhibitor on cell death induced by 4 / Effect of Ca2+ channel inhibitor on cell death induced by celastrol: inhibitor 1 h (2-APB 50 μM, RuRed 10 μM, ER-000444793 10 μM); for Effect of Ca2+ channel inhibitor on cell death induced by 4: then 4 5 μM 3 h, microscopy and MTT; for Effect of Ca2+ channel inhibitor on cell death induced by celastrol: then celastrol 1 μM 12 h; for Effect of PCD inhibitor on cell death induced by CGP37157: Z-VAD-fmk 30 μM, Nec-1 30 μM, 3-MA 5 mM, CGP37157 100 µM, 12 h, three independent experiments.

In data set [2] the test system is MFN1- and/or MFN2-KD Jurkat cells. The data set is described as follows: MTT assay of MFN1- and/or MFN2-KD Jurkat cells. In kind it is cell-based. The conditions noted are these: siRNA 10 nM, celastrol 1 µM, 12 h, three independent experiments. How it is done: The roles of MFNs in the cell death induced by 4 and CGP37157 were examined by using small interfering RNA (siRNA) for MFN1 and MFN2 to knock down (KD) these proteins. […] The cytotoxicity of 4 and CGP37157 against MFN1- and/or MFN2-KD Jurkat cells was evaluated by MTT assays. […] The effect of a negative control siRNA (NCsiRNA) on the expression levels of MFNs and the cell viability of Jurkat cells was negligible, implying that MFNs are […] to the paraptosis induced by 4 and CGP37157. It should be noted that the treatment with siRNA at 5 nM for 72 h was toxic against Jurkat cells in the presence of 4 and CGP37157, although the efficiency of knockdown of these proteins by siRNA could be improved by increasing the incubation time, as shown in Figure S11.
To a solution of transfection reagent (INTERFERin, 5 μL) in OPTI-MEM (0.3 mL) in a 1.5 mL Eppendorf tube was added siRNA (10 μM, 1 or 2 μL) in H2O, and the resulting solution was allowed to stand for 15 min at room temperature. The resulting solution was then added to Jurkat cells (2.0 × 10^5 cells/mL, 1.5 mL) in 10% FBS/RPMI 1640 medium that had been seeded on a 12-well plate and incubated overnight at 37 °C under 5% CO2 (the final concentration of siRNA was 5 or 10 nM), and the resulting solution was incubated for 48 or 72 h at 37 °C under 5% CO2. The cells were collected by centrifugation (2000 rpm, 3 min, 4 °C), and the expression levels of MFNs were evaluated by Western blot analysis as described above. The cytotoxicity of 4 (3 or 5 μM), CGP37157 (50 or 100 μM), and celastrol (1 μM) against MFNs-KD Jurkat cells was evaluated by MTT assays as described above.
(In general: Tetrazolium dyes change colour on reduction, which living cells bring about.)

Data set [3] concerns mitofusin 1 (MFN1). The data set is described as follows: Western blot analysis of MFN1 in Jurkat cells. The data set is classed as cell-based. The following applies: for MFN1 band intensity relative to absence of compound: Figure S8C, 24 h. As for the experimental part:
(§1) In a 1.5 mL Eppendorf tube, Jurkat cells (1.0 × 10^6 cells) were incubated in the presence of 4 ([…]), CGP37157 (100 μM for 0–24 h or 0–100 μM for 12 h), and celastrol (0–10 μM for 24 h or 1 μM for 0–24 h) at 37 °C under 5% CO2. After the cells had been washed twice with PBS, the proteins were extracted by using RIPA buffer (Nacalai Tesque) and quantified using a Pierce BCA Protein Assay Kit (Thermo Scientific). Proteins (7.5 μg/well) for MFNs and DRP1 and proteins (5.0 μg/well) for GAPDH were used for sodium dodecyl sulfate–polyacrylamide gel electrophoresis (SDS–PAGE) (7.5% for MFNs and DRP1 and 10% for GAPDH) (Bio-Rad). After SDS–PAGE, the proteins were transferred to a polyvinylidene fluoride membrane (Merck Millipore) by using a semi dry blotter (Bio-Rad). The membrane was blocked with Blocking One solution (Nacalai Tesque) for 30 min at room temperature. After being blocked, the membrane was washed three times with 1× TBST and treated with primary antibodies overnight (at a dilution of 1/1000 for MFNs and DRP1 or 1/2000 for GAPDH) in a signal enhancer HIKARI-solution A (Nacalai Tesque). The membrane was washed three times with 1× TBST and treated with the anti-mouse or anti-rabbit IgG HRP-conjugated secondary antibody (at a dilution of 1/4000 for MFNs and DRP1 or 1/10000 for GAPDH) in 1× TBST for 60 min at room temperature. The protein signal was spotted with a Chemi-Lumi One Ultra solution (Nacalai Tesque) using the ChemiDoc MP system (Bio-Rad). […]
On the technique in general: Immunoblotting shows a protein as a band on a membrane.

Data set [4] deals with Jurkat cells. Briefly: Mitochondria-ER membrane fusion, co-staining with MitoTracker Green and ER-Tracker Red. The following applies: celastrol 1 μM, 12 h. The data set is classed as cell-based.
Protocol: To verify this hypothesis, mitochondria and the ER were stained with both MitoTracker Green and ER-Tracker Red in the presence of 4, CGP37157, and celastrol (Figure 8). Jurkat cells were stained with MitoTracker Green (0.5 μM) and ER-Tracker Red (1 μM) and then treated with 4 (5 μM) for 10–30 min (time-dependent microscopic images are presented in Figure S5). […] With regard to CGP37157 and celastrol, Jurkat cells were stained with MitoTracker Green (0.5 μM) and ER-Tracker Red (1 μM) and then treated with CGP37157 (100 μM) and celastrol (1 μM) for 1–24 h (Figure 8 and Figure S5).
In a 1.5 mL Eppendorf tube, Jurkat cells (2.0 × 10^5 cells) were stained with MitoTracker Green (0.5 μM) for 1 h at 37 °C under 5% CO2 and then ER-Tracker Red (1 μM) for 1 h at 37 °C under 5% CO2 in 10% FBS/RPMI 1640 medium (100 μL). After being washed with PBS, the cells were treated with 4 (5 μM) in 10% FBS/RPMI 1640 medium (100 μL) for 0–30 min at 37 °C under 5% CO2. For CGP37157 and celastrol, Jurkat cells were treated with CGP37157 (100 μM) or celastrol (1 μM) in 10% FBS/RPMI 1640 medium (100 μL) for 0–24 h, after which the cells were stained with MitoTracker Green (0.5 μM) for 1 h at 37 °C under 5% CO2 and then ER-Tracker Red (1 μM) for 1 h at 37 °C under 5% CO2 in PBS. The cells were washed with PBS and observed by confocal microscopy (Fluoview, FV-1000, Olympus) using a Greiner CELLview dish (35 mm × 10 mm). Excitation at 473 nm and emission from 485 to 545 nm were used for MitoTracker Green. Excitation at 559 nm and emission from 570 to 620 nm were used for ER-Tracker Red. The exposure time was 20 μs/pixel.
The test system of data set [5] is mitofusin 2 (MFN2). The data set is described as follows: Western blot analysis of MFN2 in Jurkat cells. The data set is classed as cell-based. The following applies: for MFN2 band intensity relative to absence of compound: Figure S8C, 24 h. How it is done: as §1
Data set [6] deals with Jurkat cells. Briefly: TEM analysis of cytoplasmic vacuolization. The following applies: celastrol 1 μM, 24 h. The data set is classed as cell-based. As for the experimental part:
The morphological changes in Jurkat cells induced by CGP37157 (Figure 3B) were similar to those induced by 4 (Figure 1B) and confirmed in detail by TEM (transmission electron microscopy). Jurkat cells were treated with CGP37157 (100 μM) for 12 h, prefixed with glutaraldehyde and postfixed with osmium tetroxide (OsO4), and included in Poly 812 resin. The resulting samples were sliced and then observed by TEM. […] Similar TEM images were reported with respect to paraptosis-inducing natural compounds by some research groups: (i) paraptosis in MDA-MB 435S cells,[17] HeLa cells,[18] and Jurkat cells (Figure 4d and in our previous publications)[56]−[58] induced by celastrol, (ii) paraptosis in HeLa cells induced by 8-p-hydroxybenzoyl tovarol,[23] and (iii) paraptosis in A2780 cells and SKOV-3 cells induced by morusin.[22] Therefore, we believe that Jurkat cells undergo vacuolization in the paraptotic processes induced by 4 and CGP37157, as well as celastrol.
In a 1.5 mL Eppendorf tube, Jurkat cells (3.0 × 10^6 cells) were incubated with 4 (5 μM for 3 h), CGP37157 (100 μM for 12 h), and celastrol (1 μM for 24 h) in 10% FBS/RPMI 1640 medium at 37 °C under 5% CO2. After centrifugation (2000 rpm, 3 min, 4 °C), the cells were washed twice with PBS, prefixed with glutaraldehyde (2.5%) at 4 °C for 40 min, and then washed twice with PBS. Osmium tetroxide (1%) was used for postfixation, and the solution was incubated at 4 °C for 30 min. The cells were washed with PBS, included in an agarose gel, and dehydrated by using 50–100% and anhydrous EtOH. The cells were embedded into Poly 812 resin (Nisshin EM Co. Ltd.) at 60 °C for 3 days. The resin was sliced with a glass knife (150 nm thickness) on an ultramicrotome (EM UC6, Leica), and the samples were stained with EM stainer (Nisshin EM Co. Ltd.) and observed on TEM instrument (H-7650, Hitachi) with electron irradiation at 100 kV.

The subject of data set [7] is dynamin-related protein 1 (DRP1). Briefly: Western blot analysis of DRP1 in Jurkat cells. In kind it is cell-based. The following applies: for DRP1 band intensity relative to absence of compound: Figure S8C, 24 h. As for the experimental part: In a 1.5 mL Eppendorf tube, Jurkat cells (1.0 × 10^6 cells) were incubated in the presence of 4 ([…]), CGP37157 (100 μM for 0–24 h or 0–100 μM for 12 h), and celastrol (0–10 μM for 24 h or 1 μM for 0–24 h) at 37 °C under 5% CO2. After the cells had been washed twice with PBS, the proteins were extracted by using RIPA buffer (Nacalai Tesque) and quantified using a Pierce BCA Protein Assay Kit (Thermo Scientific). Proteins (7.5 μg/well) for MFNs and DRP1 and proteins (5.0 μg/well) for GAPDH were used for sodium dodecyl sulfate–polyacrylamide gel electrophoresis (SDS–PAGE) (7.5% for MFNs and DRP1 and 10% for GAPDH) (Bio-Rad). After SDS–PAGE, the proteins were transferred to a polyvinylidene fluoride membrane (Merck Millipore) by using a semi dry blotter (Bio-Rad). The membrane was blocked with Blocking One solution (Nacalai Tesque) for 30 min at room temperature. After being blocked, the membrane was washed three times with 1× TBST and treated with primary antibodies overnight (at a dilution of 1/1000 for MFNs and DRP1 or 1/2000 for GAPDH) in a signal enhancer HIKARI-solution A (Nacalai Tesque). The membrane was washed three times with 1× TBST and treated with the anti-mouse or anti-rabbit IgG HRP-conjugated secondary antibody (at a dilution of 1/4000 for MFNs and DRP1 or 1/10000 for GAPDH) in 1× TBST for 60 min at room temperature. The protein signal was spotted with a Chemi-Lumi One Ultra solution (Nacalai Tesque) using the ChemiDoc MP system (Bio-Rad).

[8] abbreviates: celastrol 1 μM 0–24 h or 0–10 μM 24 h.

In the case of `COc1cc(-n2c(=S)[nH]c3ccccc3c2=O)c(Cl)cc1Cl` [Mdivi-1], in data set [1], the “Effect of GTPase inhibitor on cytotoxicity by 4” value is listed as “negligible effect” and the “Effect of GTPase inhibitor on cytotoxicity by CGP37157” value is on record as “negligible effect”.

Regarding `CC1(C)Cc2c(sc(NC(=S)NC(=O)c3ccccc3)c2C(=O)O)CO1` [CID1067700], in data set [1], the “Effect of GTPase inhibitor on cytotoxicity by 4” value is reported as “negligible effect” and the “Effect of GTPase inhibitor on cytotoxicity by CGP37157” value is reported as “negligible effect”.

For the molecule `N.N.N.N.N.N.N.N.N.N.N.N.N.N.[Cl-].[Cl-].[Cl-].[Cl-].[Cl-].[Cl-].[O-2].[O-2].[Ru+3].[Ru+3].[Ru+4]` [RuRed, ruthenium red], in data set [1], the “Effect of Ca2+ channel inhibitor on cell death induced by 4” value (“Effect of Ca2+ channel inhibitor … by 4” below) is listed as “negligible inhibitory effects” and the “Effect of Ca2+ channel inhibitor on cell death induced by celastrol” value is given as “negligible inhibitory effects”.

Consider `CC1=C(O)C(=O)C=C2C1=CC=C1[C@@]2(C)CC[C@@]2(C)[C@@H]3C[C@](C)(C(=O)O)CC[C@]3(C)CC[C@]12C` [celastrol], for which the “Effect of knockdown of MFNs on cell death induced by the compound” value in data set [2] is “negligible effect”. The “MFN1 band intensity relative to absence of compound” value in data set [3] (celastrol 1 µM) is reported as 0.56; in data set [3] (celastrol 2 µM), 0.51; in data set [3] (celastrol 5 µM) it was 0.45; in data set [3] (celastrol 8 µM), 0.43; in data set [3] (celastrol 10 µM), 0.37. Moreover, in data set [3] (setting [8]), the “Expression level of MFN1 (Figure 11C, S8C)” value is on record as “decreased”. For the same molecule, in data set [4], the “Overlap of MitoTracker Green and ER-Tracker Red emission (mitochondria-ER membrane fusion)” value is reported as “negligible”. Besides, the “MFN2 band intensity relative to absence of compound” value was determined as 0.29 in data set [5] (celastrol 1 µM); 0.21 in data set [5] (celastrol 2 µM); 0.21 in data set [5] (celastrol 5 µM); 0.22 in data set [5] (celastrol 8 µM); 0.15 in data set [5] (celastrol 10 µM). Besides, in data set [5] (setting [8]), the “Expression level of MFN2 (Figure 11C, S8C)” value is reported as “decreased”. Besides, in data set [6], the “Morphological change by TEM” value is reported as “cytoplasmic vacuolization”. The “DRP1 band intensity relative to absence of compound” value stood at 0.92 in data set [7] (celastrol 1 µM); 0.81 in data set [7] (celastrol 2 µM); 0.44 in data set [7] (celastrol 5 µM); 0.20 in data set [7] (celastrol 8 µM); 0.19 in data set [7] (celastrol 10 µM). Further, the “Expression level of DRP1 (Figure 11C, S8C)” value in data set [7] (setting [8]) was “decreased”.

On to `NCCOB(c1ccccc1)c1ccccc1` [2-APB, 2-Aminoethoxydiphenyl borate], for which, in data set [1], the “Effect of Ca2+ channel inhibitor … by 4” value was “negligible inhibitory effects” and the “Effect of Ca2+ channel inhibitor on cell death induced by celastrol” value was “negligible inhibitory effects”.

For “Benzyloxycarbonyl-Val-Ala-Asp(OMe) fluoromethylketone [Z-VAD-fmk]”, the “Effect of PCD inhibitor on cell death induced by CGP37157” value (shortened to “Effect of PCD inhibitor”) in data set [1] is “weakly inhibited”.

Turning to `Cn1cnc(N)c2ncnc1-2` [3-methyladenine], the “Effect of PCD inhibitor” value in data set [1] is given as “negligible inhibition”.

For the molecule `CN1C(=O)C(Cc2c[nH]c3ccccc23)NC1=S` (stereo not shown) [necrostatin-1], the “Effect of PCD inhibitor” value in data set [1] is “negligible inhibition”.

With `O=C(Nc1ccccc1Cc1ccccc1)c1cc(=O)[nH]c2ccccc12` [ER-000444793], in data set [1], the “Effect of Ca2+ channel inhibitor … by 4” value was “negligible inhibitory effects” and the “Effect of Ca2+ channel inhibitor on cell death induced by celastrol” value is “negligible inhibitory effects”.
